Holding throughout (assay type): functional
For one test, the system named is KM12. As to the kind of experiment: Cytotoxicity against human KM12 cells assessed as growth inhibition at 10 uM after 48 hrs by SRB assay. The note with it: KM12, 48 h, read-out: GI. For orientation: The SRB assay estimates cell density from bound dye.
In the next test the test system is RXF 393. As to the kind of experiment: Cytotoxicity against human RXF393 cells assessed as growth inhibition at 10 uM after 48 hrs by SRB assay. The following applies: RXF 393, 48 h, read-out: GI.
The test system of another test is NCI-H226. The test can be described thus: Cytotoxicity against human NCI-H226 cells assessed as growth inhibition at 10 uM after 48 hrs by SRB assay. The note with it: NCI-H226, 48 h, read-out: GI.
In another test the test system is UACC-62. The test can be described thus: Cytotoxicity against human UACC62 cells assessed as growth inhibition at 10 uM after 48 hrs by SRB assay. The following applies: UACC-62, 48 h, read-out: GI.
In another test the test system is SK-MEL-2. As to the kind of experiment: Cytotoxicity against human SK-MEL-2 cells assessed as growth inhibition at 10 uM after 48 hrs by SRB assay. The following applies: SK-MEL-2, 48 h, read-out: GI.
For the next test, the system named is IGROV-1. The test can be described thus: Cytotoxicity against human IGROV1 cells assessed as growth inhibition at 10 uM after 48 hrs by SRB assay. The note with it: IGROV-1, 48 h, read-out: GI.
The subject of a further test is HCC 2998. As to the kind of experiment: Cytotoxicity against human HCC2998 cells assessed as growth inhibition at 10 uM after 48 hrs by SRB assay. The following applies: HCC 2998, 48 h, read-out: GI.
Another test deals with HCT-116. The test can be described thus: Cytotoxicity against human HCT116 cells assessed as growth inhibition at 10 uM after 48 hrs by SRB assay. The following applies: HCT-116, 48 h, read-out: GI.
Another test relates to OVCAR-5. The test can be described thus: Cytotoxicity against human OVCAR5 cells assessed as growth inhibition at 10 uM after 48 hrs by SRB assay. The note with it: OVCAR-5, 48 h, read-out: GI.
In a further test the test system is SF-295. As to the kind of experiment: Cytotoxicity against human SF295 cells assessed as growth inhibition at 10 uM after 48 hrs by SRB assay. The note with it: SF-295, 48 h, read-out: GI.
A further test deals with HT-29. As to the kind of experiment: Cytotoxicity against human HT-29 cells assessed as growth inhibition at 10 uM after 48 hrs by SRB assay. The following applies: HT-29, 48 h, read-out: GI.
Another test deals with PC-3. As to the kind of experiment: Cytotoxicity against human PC3 cells assessed as growth inhibition at 10 uM after 48 hrs by SRB assay. The note with it: PC-3, 48 h, read-out: GI.
Another test concerns SK-MEL-28. The test can be described thus: Cytotoxicity against human SK-MEL-28 cells assessed as growth inhibition at 10 uM after 48 hrs by SRB assay. The following applies: SK-MEL-28, 48 h, read-out: GI.
For the next test, the system named is SW-620. The test can be described thus: Cytotoxicity against human SW620 cells assessed as growth inhibition at 10 uM after 48 hrs by SRB assay. The note with it: SW-620, 48 h, read-out: GI.
A further test concerns Hs-578T. As to the kind of experiment: Cytotoxicity against human Hs578T cells assessed as growth inhibition at 10 uM after 48 hrs by SRB assay. The note with it: read-out: GI.
The subject of the next test is A498. The test can be described thus: Cytotoxicity against human A498 cells assessed as growth inhibition at 10 uM after 48 hrs by SRB assay. The following applies: A498, 48 h, read-out: GI.
The nature of test [1]: Cytotoxicity against human NCI-ADR-RES cells assessed as growth inhibition at 10 uM after 48 hrs by SRB assay. The following applies: read-out: GI.
Another test deals with SNB-19. As to the kind of experiment: Cytotoxicity against human SNB19 cells assessed as growth inhibition at 10 uM after 48 hrs by SRB assay. The note with it: SNB-19, 48 h, read-out: GI.
Another test concerns A549. The test can be described thus: Cytotoxicity against human A549/ATCC cells assessed as growth inhibition at 10 uM after 48 hrs by SRB assay. The following applies: A549, 48 h, read-out: GI.
In a further test the test system is MDA-MB-468. As to the kind of experiment: Cytotoxicity against human MDA-MB-468 cells assessed as growth inhibition at 10 uM after 48 hrs by SRB assay. The following applies: MDA-MB-468, 48 h, read-out: GI.

SMILES strings stand for the structures.

As for `O=C(Nc1ccc(NC2=NS(=O)(=O)c3ccccc32)cc1)Nc1cccc(Br)c1`, the inhibition of growth at 10 µM is 88% in the test on KM12; 35% in the test with RXF 393; 20% with NCI-H226; 19% with UACC-62; 1% in the test with SK-MEL-2; -10% with IGROV-1. Besides, the inhibition of growth at 10 µM was determined as 5% with HCC 2998; 22% with HCT-116; 13% in the test on OVCAR-5; 20% in the test with SF-295; 11% in the test on HT-29; 16% in the test with PC-3. The inhibition of growth at 10 µM is 5% in the test with SK-MEL-28; -2% in the test on SW-620; 35% with Hs-578T; 21% in the test with A498; 8% in test [1]; 19% with SNB-19. Also, the values for the inhibition of growth at 10 µM with A549 and in the test on MDA-MB-468 were 4% and 60%, respectively.
With `O=C(Nc1ccc(OC2=NS(=O)(=O)c3ccccc32)cc1)Nc1ccccc1Cl`, the inhibition of growth at 10 µM is 10% in the test on KM12; 10% with RXF 393; 25% with NCI-H226; 16% in the test on UACC-62; -1% in the test on SK-MEL-2; 0% with IGROV-1. For the same compound, the inhibition of growth at 10 µM was -5% with HCC 2998; 1% in the test with HCT-116; 3% in the test on OVCAR-5; 8% with SF-295; 4% in the test with HT-29; 9% in the test on PC-3. Further, the inhibition of growth at 10 µM with SK-MEL-28 is -8%; in the test with SW-620, -5%; in the test with Hs-578T, -1%; with A498, 5%; in [1] it was 13%; with SNB-19, -9%. Besides, the inhibition of growth at 10 µM with A549 came to 7%; with MDA-MB-468, 8%.
As to `O=C(Nc1ccccc1)Nc1ccc(NC2=NS(=O)(=O)c3ccccc32)cc1`, the inhibition of growth at 10 µM is -6% in the test on KM12; -6% in the test on RXF 393; 10% in the test on NCI-H226; -7% in the test on UACC-62; -14% in the test on SK-MEL-2; -14% in the test on IGROV-1. Moreover, the inhibition of growth at 10 µM was -7% in the test with HCC 2998; -6% in the test on HCT-116; -2% with OVCAR-5; 1% with SF-295; 1% with HT-29; -3% in the test on PC-3. Besides, the inhibition of growth at 10 µM with SK-MEL-28 is -10%; in the test with SW-620, -4%; in the test on Hs-578T, -9%; with A498, 16%; in test [1], -2%; in the test with SNB-19, -5%. Further, the inhibition of growth at 10 µM in the test with A549 was 3%; in the test with MDA-MB-468, -11%.
As to `Cc1ccc(NC2=NS(=O)(=O)c3ccc(NC(=O)CCC(=O)O)cc32)cc1`, the inhibition of growth at 10 µM is -13% in the test with KM12; -4% in the test on RXF 393; 13% in the test with NCI-H226; 6% in the test on UACC-62; -6% in the test on SK-MEL-2; -12% in the test with IGROV-1. Also, the inhibition of growth at 10 µM with HCC 2998 was -4%; in the test with HCT-116, -6%; in the test with OVCAR-5, 1%; with SF-295 it was 1%; with HT-29, -3%; in the test on PC-3 it was -2%. Also, the inhibition of growth at 10 µM was -2% in the test with SK-MEL-28; 1% in the test with SW-620; -2% in the test with Hs-578T; -14% in the test on A498; -3% in test [1]; 1% with SNB-19. Further, the inhibition of growth at 10 µM in the test on A549 is -7%; with MDA-MB-468 it was -6%.
On to `COc1ccc(NC(=O)Nc2ccc(NC3=NS(=O)(=O)c4ccccc43)cc2)cc1`, for which the inhibition of growth at 10 µM was -1% in the test with KM12; -2% in the test on RXF 393; -3% in the test with NCI-H226; -3% in the test with UACC-62; -4% in the test on SK-MEL-2; -6% with IGROV-1. Moreover, the inhibition of growth at 10 µM in the test with HCC 2998 was -3%; in the test with HCT-116, 5%; in the test on OVCAR-5 it was -10%; with SF-295 it was 18%; with HT-29, 17%; in the test on PC-3, -5%. The inhibition of growth at 10 µM was -4% in the test on SK-MEL-28; -6% in the test on SW-620; -4% with Hs-578T; 17% in the test on A498; -6% in test [1]; -6% in the test on SNB-19. Moreover, the inhibition of growth at 10 µM is -10% with A549 and -7% in the test with MDA-MB-468.
With `O=C(Nc1ccccc1)Nc1ccc(OC2=NS(=O)(=O)c3ccccc32)cc1`, the inhibition of growth at 10 µM in the test with KM12 is 58%; in the test on RXF 393, 5%; in the test on NCI-H226, 20%; with UACC-62, 21%; in the test with SK-MEL-2 it was -2%; in the test on IGROV-1 it was -12%. For the same compound, the inhibition of growth at 10 µM in the test on HCC 2998 is 20%; with HCT-116 it was 10%; with OVCAR-5 it was 13%; in the test on SF-295 it was 32%; with HT-29, 52%; in the test with PC-3, 11%. In addition, the inhibition of growth at 10 µM with SK-MEL-28 was -2%; in the test on SW-620 it was 2%; in the test with Hs-578T, 13%; in the test with A498 it was 17%; in test [1], 21%; in the test with SNB-19 it was -1%. The inhibition of growth at 10 µM in the test on A549 was determined as 22%; in the test on MDA-MB-468, 20%.

These data come from ChEMBL document CHEMBL2331514, “Structure-based design and synthesis of novel pseudosaccharine derivatives as antiproliferative agents and kinase inhibitors” (Eur J Med Chem, 2013).
